Measurements published in patent US20230192704A1, “MONOCARBOXYLIC ACID TRANSPORTER 4 (MCT4) MODULATORS AND USES THEREOF” (Teon Therapeutics, Inc., priority 2020, published 2023).

Assays:
MCT1 = target: T1, MCT1 (Homo sapiens, UniProt P53985); assay: MCT1 transport assay (L-lactate influx, BCECF-AM intracellular pH); type: cell-based; conditions: BT-20 cells expressing exclusively MCT1
T1 construct: BT-20 cells—a triple negative human breast cancer cell line expressing exclusively MCT1 (confirmed by Western blotting); host or cells: BT-20
T1 sequence (P53985 1-500): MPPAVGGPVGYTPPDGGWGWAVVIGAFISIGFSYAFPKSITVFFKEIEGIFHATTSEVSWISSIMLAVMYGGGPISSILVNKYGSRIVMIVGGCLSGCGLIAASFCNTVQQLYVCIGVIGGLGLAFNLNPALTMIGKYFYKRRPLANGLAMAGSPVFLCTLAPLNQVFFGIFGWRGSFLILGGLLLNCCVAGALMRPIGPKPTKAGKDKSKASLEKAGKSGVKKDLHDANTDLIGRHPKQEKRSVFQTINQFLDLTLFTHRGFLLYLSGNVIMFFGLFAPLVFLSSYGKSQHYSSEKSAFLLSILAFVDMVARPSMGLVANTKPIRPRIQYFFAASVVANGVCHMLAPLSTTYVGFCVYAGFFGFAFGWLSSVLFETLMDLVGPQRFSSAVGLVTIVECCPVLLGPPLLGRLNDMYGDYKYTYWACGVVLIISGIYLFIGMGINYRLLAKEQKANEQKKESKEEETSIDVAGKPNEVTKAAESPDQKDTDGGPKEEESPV
T1 sequence (P35613 140-385 partner limits assumed): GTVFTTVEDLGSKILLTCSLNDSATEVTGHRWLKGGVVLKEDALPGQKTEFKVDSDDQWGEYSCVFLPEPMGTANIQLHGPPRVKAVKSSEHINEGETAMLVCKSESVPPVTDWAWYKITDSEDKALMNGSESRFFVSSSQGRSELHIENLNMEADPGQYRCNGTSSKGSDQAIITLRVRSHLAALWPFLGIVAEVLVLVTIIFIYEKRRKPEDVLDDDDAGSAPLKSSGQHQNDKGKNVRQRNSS
Text: The following in vitro MCT4 and MCT1 transport assays were used to measure the effect of the compounds on L-lactate influx into two different cell lines: • a) MDA-MB-231 cells—a triple negative human breast cancer cell line expressing exclusively MCT4 (confirmed by Western blotting) was used for the MCT4 transport assay, • b) BT-20 cells—a triple negative human breast cancer cell line expressing exclusively MCT1 (confirmed by Western blotting) was used for the
(§1) The compounds' efficacy in both assays was determined by calculating their IC50 value (the concentration of test compound that inhibited 50% of biological activity).
(§2) MCT4 is predominantly involved in cellular efflux of lactate from the cell, preventing intracellular acidification. In the MCT4 in vitro transport system described here it was possible to drive influx of lactate in the cells and test the compounds efficacy in preventing this process. MCT1 is involved in influx-efflux of lactate, and because it is closely related to MCT4, it is a major selectivity target for MCT4 inhibitor. The MCT1 in vitro transport system described here measured the influx of lactate in the cells and ability of test compounds in preventing this process.
BT-20 (ATCC); Media: EMEM+10% FBS+1% PS
(§3) Tyrode's Solution pH7.4 (NaCl 119 mM; KC1 5 mM; HEPES pH7.4 25 mM; CaCl2 2 mM; MgCl2 2 mM; Glucose 6 g/L)
(§4) The following assay was performed to assess MCT4 (MDA-MB-231 cell line) or MCT1 (BT-20 cell line) activity by monitoring the intracellular pH change that accompanies lactate/proton transport using the pH-sensitive fluorescent dye BCECF-AM.
(§5) Compound preparation: The compounds were serially diluted in 100% DMSO 1:3 for 8 pts and transferred (500 nl) to a 96-well plate by Echo.
(§6) Cell preparation: Cells were briefly rinsed with 10 ml of PBS solution to remove all traces of serum, trypsinized (0.05% Trypsin-EDTA) at 25° C. for 2-3 minutes and washed twice with Tyrode's solution. The cell viability and concentration were determined using Vi-Cell. Cells were resuspended in Tyrode's solution.
(§7) Cells were loaded with the pH sensitive dye BCECF-AM (5 uM final concentration from the 30 mM DMSO stock solution) at 37° C. for 30 minutes before being washed twice to remove excess dye and resuspended to 2 million/ml cells in Tyrode's solution. Cells were seeded into a 96-well plate (200,000 cells/well) directly onto the test compound or a reference compound for 10 minutes at 37° C. Following incubation with test compounds, 25 ul of 30 mM Sodium-L-lactate was added. This addition was performed on the FlexStation III as a part of a real-time kinetic protocol. The ratio of cellular fluorescence at 535 nm after excitation at 490 nm/440 nm was measured over time for baseline (pre-lactate addition) and post-lactate addition for 60 sec with or without compounds present. Inhibitory concentration response curves were generated for compounds and their IC50 values calculated.

MCT4 = target: T2, MCT4 (Homo sapiens, UniProt O15427); assay: MCT4 transport assay (L-lactate influx, BCECF-AM intracellular pH); type: cell-based; conditions: MDA-MB-231 cells expressing exclusively MCT4
T2 construct: MDA-MB-231 cells—a triple negative human breast cancer cell line expressing exclusively MCT4 (confirmed by Western blotting); host or cells: MDA-MB-231
T2 sequence (O15427 2-465 limits assumed): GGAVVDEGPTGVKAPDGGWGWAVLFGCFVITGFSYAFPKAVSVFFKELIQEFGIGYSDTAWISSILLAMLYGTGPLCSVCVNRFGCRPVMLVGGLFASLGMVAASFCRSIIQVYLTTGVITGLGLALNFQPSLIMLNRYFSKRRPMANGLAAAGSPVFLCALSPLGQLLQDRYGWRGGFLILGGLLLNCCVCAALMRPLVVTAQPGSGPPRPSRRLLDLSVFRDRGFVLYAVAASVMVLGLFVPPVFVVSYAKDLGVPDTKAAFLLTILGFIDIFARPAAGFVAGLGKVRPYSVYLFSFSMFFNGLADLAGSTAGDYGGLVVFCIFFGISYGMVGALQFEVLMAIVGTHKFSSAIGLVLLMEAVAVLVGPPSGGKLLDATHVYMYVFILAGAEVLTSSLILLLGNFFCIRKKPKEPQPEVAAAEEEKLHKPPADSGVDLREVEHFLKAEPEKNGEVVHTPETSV
Description: as §1, §2, §3, §4, §5, §6, §7

Row | SMILES | IC50 (MCT1) [nM] | IC50 (MCT4) [nM]
1 | Cc1nc2nc(C)c(O[C@@H]3CCN(c4ccc(-c5ccc(CN6CCOCC6)nn5)cc4)C3)c(C)n2n1 [Compound 1, (R)-4-((6-(4-(3-((2,5,7-trimethyl-[1,2,4]triazolo[1,5-a]pyrimidin-6-yl)oxy)pyrrolidin-1-yl)phenyl)pyridazin-3-yl)methyl)morpholine] | > 1000 | –
2 | Cc1cn2c(C)c(O[C@@H]3CCN(c4ccc(-c5ccc(CN6CCOCC6)nn5)cc4)C3)c(C)nc2n1 [Compound 2, (R)-4-((6-(4-(3-((2,5,7-trimethylimidazo[1,2-a]pyrimidin-6-yl)oxy)pyrrolidin-1-yl)phenyl)pyridazin-3-yl)methyl)morpholine] | > 1000 | 100 to 499
3 | Cc1nc2nc(C)c(C)n2c(C)c1O[C@@H]1CCN(c2ccc(-c3ccc(CN4CCOCC4)nn3)cc2)C1 [Compound 3, (R)-4-((6-(4-(3-((2,3,5,7-tetramethylimidazo[1,2-a]pyrimidin-6-yl)oxy)pyrrolidin-1-yl)phenyl)pyridazin-3-yl)methyl)morpholine] | > 1000 | > 1000
4 | Cc1cc2nc(C)c(O[C@@H]3CCN(c4ccc(-c5ccc(CN6CCOCC6)nn5)cc4)C3)c(C)n2n1 [Compound 4, (R)-4-((6-(4-(3-((2,5,7-trimethylpyrazolo[1,5-a]pyrimidin-6-yl)oxy)pyrrolidin-1-yl)phenyl)pyridazin-3-yl)methyl)morpholine] | > 1000 | < 100
5 | Cc1nc2nc(C)c(O[C@@H]3CCN(c4cnc(C#CCN5CCOCC5)nc4)C3)c(C)n2n1 [Compound 5, (R)-4-(3-(5-(3-((2,5,7-trimethyl-[1,2,4]triazolo[1,5-a]pyrimidin-6-yl)oxy)pyrrolidin-1-yl)pyrimidin-2-yl)prop-2-yn-1-yl)morpholine] | > 1000 | < 100
6 | Cc1nc2nc(C)c(O[C@@H]3CCN(c4cnc(C56CCC(CN7CCOCC7)(CC5)CC6)nc4)C3)c(C)n2n1 [Compound 6, (R)-4-((4-(5-(3-((2,5,7-trimethyl-[1,2,4]triazolo[1,5-a]pyrimidin-6-yl)oxy)pyrrolidin-1-yl)pyrimidin-2-yl)bicyclo[2.2.2]octan-1-yl)methyl)morpholine] | > 1000 | < 100
7 | Cc1nc2nc(C)c(O[C@@H]3CCN(c4ccc(-c5ccc(CN6CC7(COC7)C6)nn5)cc4)C3)c(C)n2n1 [Compound 7, (R)-6-((6-(4-(3-((2,5,7-trimethyl-[1,2,4]triazolo[1,5-a]pyrimidin-6-yl)oxy)pyrrolidin-1-yl)phenyl)pyridazin-3-yl)methyl)-2-oxa-6-azaspiro[3.3]heptane] | > 1000 | < 100

Now from value to compound:

Row | IC50 (MCT1) [nM] | IC50 (MCT4) [nM] | SMILES
8 | > 1000 | < 100 | COC1CN(Cc2ccc(-c3ccc(N4CC[C@@H](Oc5c(C)nc6nc(C)nn6c5C)C4)cc3)nn2)C1 [Compound 8, (R)-6-((1-(4-(6-((3-methoxyazetidin-1-yl)methyl)pyridazin-3-yl)phenyl)pyrrolidin-3-yl)oxy)-2,5,7-trimethyl-[1,2,4]triazolo[1,5-a]pyrimidine]
9 | > 1000 | < 100 | Cc1nc2nc(C)c(O[C@@H]3CCN(c4ccc(-c5ccc(CN6CC(N(C)C)C6)nn5)cc4)C3)c(C)n2n1 [Compound 9, (R)-N,N-dimethyl-1-((6-(4-(3-((2,5,7-trimethyl-[1,2,4]triazolo[1,5-a]pyrimidin-6-yl)oxy)pyrrolidin-1-yl)phenyl)pyridazin-3-yl)methyl)azetidin-3-amine]
10 | > 1000 | < 100 | Cc1nc2nc(C)c(O[C@@H]3CCN(c4ccc(-c5ccc(CN6CC(S(C)(=O)=O)C6)nn5)cc4)C3)c(C)n2n1 [Compound 10, (R)-2,5,7-trimethyl-6-((1-(4-(6-((3-(methylsulfonyl)azetidin-1-yl)methyl)pyridazin-3-yl)phenyl)pyrrolidin-3-yl)oxy)-[1,2,4]triazolo[1,5-a]pyrimidine]
11 | > 1000 | 100 to 499 | Cc1nc2nc(C)c(O[C@@H]3CCN(c4ccc(-c5ccc(CN6CC(C(N)=O)C6)nn5)cc4)C3)c(C)n2n1 [Compound 11, (R)-1-((6-(4-(3-((2,5,7-trimethyl-[1,2,4]triazolo[1,5-a]pyrimidin-6-yl)oxy)pyrrolidin-1-yl)phenyl)pyridazin-3-yl)methyl)azetidine-3-carboxamide]
12 | > 1000 | < 100 | Cc1nc2nc(C)c(O[C@@H]3CCN(c4ccc(-c5ccc(CN6CC(C(=O)N(C)C)C6)nn5)cc4)C3)c(C)n2n1 [Compound 12, (R)-N,N-dimethyl-1-((6-(4-(3-((2,5,7-trimethyl-[1,2,4]triazolo[1,5-a]pyrimidin-6-yl)oxy)pyrrolidin-1-yl)phenyl)pyridazin-3-yl)methyl)azetidine-3-carboxamide]
13 | > 1000 | < 100 | Cc1nc2nc(C)c(O[C@@H]3CCN(c4ccc(-c5ccc(C(=O)N6CC7(COC7)C6)nn5)cc4)C3)c(C)n2n1 [Compound 13, (R)-(2-oxa-6-azaspiro[3.3]heptan-6-yl)(6-(4-(3-((2,5,7-trimethyl-[1,2,4]triazolo[1,5-a]pyrimidin-6-yl)oxy)pyrrolidin-1-yl)phenyl)pyridazin-3-yl)methanone]
14 | > 1000 | < 100 | COC1CN(C(=O)c2ccc(-c3ccc(N4CC[C@@H](Oc5c(C)nc6nc(C)nn6c5C)C4)cc3)nn2)C1 [Compound 14, (R)-(3-methoxyazetidin-1-yl)(6-(4-(3-((2,5,7-trimethyl-[1,2,4]triazolo[1,5-a]pyrimidin-6-yl)oxy)pyrrolidin-1-yl)phenyl)pyridazin-3-yl)methanone]
15 | > 1000 | < 100 | Cc1nc2nc(C)c(O[C@@H]3CCN(c4ccc(-c5ccc(C(=O)N6CC(N(C)C)C6)nn5)cc4)C3)c(C)n2n1 [Compound 15, (R)-(3-(dimethylamino)azetidin-1-yl)(6-(4-(3-((2,5,7-trimethyl-[1,2,4]triazolo[1,5-a]pyrimidin-6-yl)oxy)pyrrolidin-1-yl)phenyl)pyridazin-3-yl)methanone]
16 | > 1000 | < 100 | Cc1nc2nc(C)c(O[C@@H]3CCN(c4ccc(-c5ccc(C(=O)N6CC(S(C)(=O)=O)C6)nn5)cc4)C3)c(C)n2n1 [Compound 16, (R)-(3-(methylsulfonyl)azetidin-1-yl)(6-(4-(3-((2,5,7-trimethyl-[1,2,4]triazolo[1,5-a]pyrimidin-6-yl)oxy)pyrrolidin-1-yl)phenyl)pyridazin-3-yl)methanone]
